Assay [1] has as its target T1, Aquaporin-1 (Homo sapiens, UniProt P29972).
T1 sequence (P29972 whole entry): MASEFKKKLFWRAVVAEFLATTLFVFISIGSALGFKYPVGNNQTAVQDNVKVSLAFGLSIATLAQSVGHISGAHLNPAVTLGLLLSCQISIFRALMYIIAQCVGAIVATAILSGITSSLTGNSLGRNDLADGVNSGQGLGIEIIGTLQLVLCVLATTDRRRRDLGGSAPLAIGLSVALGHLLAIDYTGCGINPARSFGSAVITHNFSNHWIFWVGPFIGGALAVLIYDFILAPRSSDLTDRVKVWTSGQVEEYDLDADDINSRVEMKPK
Kind of assay: Agonist activity at human AQP1 water channel expressed in Xenopus laevis oocytes assessed as inhibition of AQP1-mediated osmotic swelling. In kind it is cell-based, Oocyte.

In assay [2] the test system is Mus musculus. Kind of assay: Diuretic activity in CD-1 mouse assessed as increase in urine volume at 10 to 50 mg/kg,ip with short term administration of furosemide measured after 3 hrs. It is filed as functional. To be noted: dose 10-50 mg/kg.
Assay [3] relates to Mus musculus. The experiment in a line: Diuretic activity in C57BL/6 mouse assessed as increase in urine volume at 10 to 50 mg/kg,ip with short term administration of furosemide measured after 3 hrs. In kind it is functional. To be noted: dose 10-50 mg/kg.
For assay [4], the target named is T2, Pendrin (Mus musculus, UniProt Q9R155).
T2 sequence (Q9R155 whole entry): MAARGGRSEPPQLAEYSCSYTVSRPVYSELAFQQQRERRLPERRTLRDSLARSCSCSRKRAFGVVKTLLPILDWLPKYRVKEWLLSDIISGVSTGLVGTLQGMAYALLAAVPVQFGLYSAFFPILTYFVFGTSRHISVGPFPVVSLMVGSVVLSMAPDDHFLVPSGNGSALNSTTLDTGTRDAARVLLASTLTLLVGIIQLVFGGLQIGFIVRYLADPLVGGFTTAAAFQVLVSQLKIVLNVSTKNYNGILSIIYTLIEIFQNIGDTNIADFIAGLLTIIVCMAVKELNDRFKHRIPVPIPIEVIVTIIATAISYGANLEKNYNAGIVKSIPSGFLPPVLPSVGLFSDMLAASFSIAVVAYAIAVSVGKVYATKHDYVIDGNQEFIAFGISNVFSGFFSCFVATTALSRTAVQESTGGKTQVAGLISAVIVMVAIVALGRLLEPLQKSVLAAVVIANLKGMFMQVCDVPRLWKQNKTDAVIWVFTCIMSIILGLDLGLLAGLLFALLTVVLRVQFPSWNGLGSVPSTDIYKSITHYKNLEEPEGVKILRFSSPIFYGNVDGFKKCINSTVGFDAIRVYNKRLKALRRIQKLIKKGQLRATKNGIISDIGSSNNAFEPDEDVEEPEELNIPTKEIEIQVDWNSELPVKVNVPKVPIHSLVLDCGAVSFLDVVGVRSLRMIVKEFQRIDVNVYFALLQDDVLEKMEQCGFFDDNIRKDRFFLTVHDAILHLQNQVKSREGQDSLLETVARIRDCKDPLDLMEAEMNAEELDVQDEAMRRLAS
The experiment in a line: Inhibition of mouse Pendrin stably expressed in FRT cells with YFP assessed as inhibition of pendrin mediated Cl-/HCO3- exchange by fluorescence assay. In kind it is cell-based.

For assay [5], the target named is T2, Pendrin. The experiment in a line: Inhibition of mouse Pendrin stably expressed in FRT cells with YFP assessed as inhibition of pendrin mediated Cl-/SCN- exchange by fluorescence assay. It is filed as cell-based.
Assay [6] relates to Mus musculus. The experiment in a line: Diuretic activity in CD-1 mouse assessed as increase in urine volume at 20 mg/kg,ip with long term administration of furosemide measured after 3 hrs. It is filed as functional.
For assay [7], the target named is T2, Pendrin. Kind of assay: Inhibition of mouse Pendrin stably expressed in FRT cells with YFP assessed as inhibition of pendrin mediated Cl-/NO3- exchange by fluorescence assay. It is filed as cell-based.
In assay [8] the test system is Mus musculus. The experiment in a line: Diuretic activity in C57BL/6 mouse assessed as increase in urine volume at 20 mg/kg,ip with long term administration of furosemide measured after 3 hrs. It is filed as functional.

The structures appear in SMILES notation.

For orientation: EC50 means the concentration needed to bring the measured effect to its halfway point. Regarding `COC(=O)c1cc(S(=O)(=O)NCc2ccccc2)c(Cl)cc1NCc1ccco1`, the EC50 in assay [1] stood at 3.3 µM.
As a reminder, the IC50 is the concentration at which inhibition is half-maximal. In the case of `Cc1n[nH]c(-c2cc(S(=O)(=O)NC3CCCc4ccccc43)c(C)s2)c1C` (stereo not drawn), the Activity in assay [2] was 30%; in assay [3], 30%; in assay [6] it was 60%; in assay [8] it was 60%. For the same compound, the results for the IC50 in assay [4], in assay [5] and in assay [7] were 10 µM, 9 µM and 5 µM, respectively.

The record behind these values is ChEMBL document CHEMBL5230131, “Modern trends in diuretics development” (Eur J Med Chem, 2020).
